Reference: patent US20240108740A1, “THERAPEUTIC COMPOSITIONS INCLUDING SPN10 AND USES THEREOF” (Stealth BioTherapeutics Inc., priority 2022, published 2024)
Residues, ends and D or L forms follow the SMILES beside them.

Key:
[1] = tested on: New Zealand white rabbits; experiment: Acute myocardial infarction injury in a rabbit model; format: in vivo; conditions: IV infusion, 30-minute ischemia, 3 hours post-reperfusion
Procedure: New Zealand white rabbits will be used in this study. The rabbits will be males and >10 weeks in age. Environmental controls in the animal rooms will be set to maintain temperatures of 61° to 72° F. and relative humidity between 30% and 70%. Room temperature and humidity will be recorded hourly, and monitored daily. There will be approximately 10-15 air exchanges per hour in the animal rooms. Photoperiod will be 12-hr light/12-hr dark (via fluorescent lighting) with exceptions as necessary to accommodate dosing and data collection. Routine daily observations will be performed. Harlan Teklad, Certified Diet (2030C), rabbit diet will be provided approximately 180 grams per day from arrival to the facility. In addition, fresh fruits and vegetables will be given to the rabbit 3 times a week. […]
In all cases, treatments will be started approximately 30 minutes after the onset of a 30-minute ischemic insult (coronary occlusion) and continued for up to 3 hours following reperfusion. In all cases, cardiovascular function will be monitored both prior to and during ischemia, as well as for up to 180 minutes (3 hours) post-reperfusion. The experiments will be terminated 3 hours post-reperfusion (end of study); irreversible myocardial injury (infarct size by histomorphometery) at this time-point will be evaluated, and will be the primary-end-point of the study.

Sprague-Dawley rats = experiment: Example 56: diabetic retinopathy in STZ and HFD/STZ rats; format: in vivo, rat
Procedure: A rat model of diabetes will be established by combination of 6-week HFD and either 1) a low-dose STZ (30 mg/kg) injection, or 2) a single high dose of STZ (65 mg/kg) in Sprague-Dawley rats. See generally, Srinivasan, et al., Pharm. Res. 52(4):313-320 (2005). Controls will be maintained on normal rat chow (NRC). Treatment groups will be as follows: • Group A: 12 HFD/STZ peptide conjugates 10 mg/kg s.c • Group B: 12 HFD/STZ peptide conjugates 3 mg/kg s.c. • Group C: 12 HFD/STZ peptide conjugates 1 mg/kg s.c. • Group D: 10 HFD/STZ control vehicle. s.c. • Group E: 10 NRC control vehicle. s.c. • Group F: 12 HFD/STZ aromatic-cationic peptide (an equivalent molar dose of aromatic-cationic peptide based on concentration of the aromatic-cationic peptide administered in the 10 mg/kg s.c.q.d. peptide conjugate group) • Group G: 12 HFD/STZ aromatic-cationic peptide (an equivalent molar dose of aromatic-cationic peptide based on concentration of the aromatic-cationic peptide administered in the 3 mg/kg s.c.q.d. peptide conjugate group) • Group H: 12 HFD/STZ aromatic-cationic peptide (an equivalent molar dose of aromatic-cationic peptide based on concentration of the aromatic-cationic peptide administered in the 1 mg/kg s.c.q.d. peptide conjugate group) • Group I: 12 HFD/STZ SPN10 (an equivalent molar dose of SPN10 based on concentration of SPN10 administered in the 10 mg/kg s.c.q.d. peptide conjugate group) • Group J: 12 HFD/STZ SPN10 (an equivalent molar dose of SPN10 based on concentration of SPN10 administered in the 3 mg/kg s.c.q.d. peptide conjugate group) • Group K: 12 HFD/STZ SPN10 (an equivalent molar dose of SPN10 based on concentration of SPN10 administered in the 1 mg/kg s.c.q.d. peptide conjugate group). • Group L: SPN10(s) in combination with aromatic-cationic peptides (e.g., an equivalent molar dose of SPN10 based on the concentration of SPN10 administered in the 10 mg/kg s.c.q.d. peptide conjugate treatment group and an equivalent molar dose of aromatic-cationic peptide based on the concentration of aromatic-cationic peptide administered in the 10 mg/kg s.c.q.d. peptide conjugate treatment group) • Group M: SPN10(s) in combination with aromatic-cationic peptides (e.g., an equivalent molar dose of SPN10 based on the concentration of SPN10 administered in the 3 mg/kg s.c.q.d. peptide conjugate treatment group and an equivalent molar dose of aromatic-cationic peptide based on the concentration of aromatic-cationic peptide administered in the 3 mg/kg s.c.q.d. peptide conjugate treatment group) • Group N: SPN10(s) in combination with aromatic-cationic peptides (e.g., an equivalent molar dose of SPN10 based on the concentration of SPN10 administered in the 1 mg/kg s.c.q.d. peptide conjugate treatment group and an equivalent molar dose of aromatic-cationic peptide based on the concentration of aromatic-cationic peptide administered in the 1 mg/kg s.c.q.d. peptide conjugate treatment group)
Eyes will be harvested and subjects assessed for cataract formation, epithelial changes, integrity of the blood-retinal barrier, retinal microvascular structure, and retinal tight junction structure using methods known in the art.

N=C(N)NCCC[C@H](NC(=O)[C@@H](N)Cc1c[nH]c2ccccc12)C(=O)N[C@@H](Cc1c[nH]c2ccccc12)C(=O)N[C@@H](CCCCN)C(N)=O [SPN10, H-L-Trp-L-Arg-L-Trp-L-Lys-NH2] (H-WRWK-NH2)
infarct size compared to the vehicle control group [1]: decreased infarct size | non-uniform distribution of tight junctions (claudin-5) along retinal vessels (Sprague-Dawley rats; HFD/STZ subjects): prevent, reverse, or attenuate this effect | retinal microvascular changes (Sprague-Dawley rats; STZ or HFD/STZ rats): reduce retinal microvascular changes | epithelial cellular changes (Sprague-Dawley rats; STZ rat model and HFD/STZ rat model): reduce epithelial cellular changes | inner blood-retinal barrier function (Sprague-Dawley rats; compared to control subjects): improved inner blood-retinal barrier function | cataract formation in the lenses of diabetic rats (Sprague-Dawley rats; rat, in vivo): prevention or reversal of cataract formation
